Experimental data: the supplement of paper PMC10307832

Compound: NCC(=O)Nc1ccc(-n2nc(C(F)(F)F)cc2-c2ccc3c(ccc4ccccc43)c2)cc1 + Cc1nc(NC(=O)N2CCC[C@H]2C(N)=O)sc1-c1ccnc(C(C)(C)C(F)(F)F)c1 [Alpelisib] (partner 2 µM)
Test: relative viability (nuclei count vs DMSO), 5 days (fraction); higher = more cells survive
Details: first compound 0.06325 µM
Method in brief: (§1)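 Nuclei were stained with Hoechst during a one-step fixation (final 0.05% Triton X-100, 1% formaldehyde, 1 ug/ml Hoechst) carried out 5 days after dosing, then counted on 4× images. The cells, lung cancer lines in 1536-well plates, had been dosed by pin tool the day after seeding with one drug alone or a fixed anchor-drug dose plus five library-drug doses (not always all listed) in √10 steps. Relative viability is the nuclei count in treated wells divided by that in vehicle wells, and each value is the median of duplicate plates.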

Row | Cell Line | relative viability
1 | HCC-78 | 0.422
2 | NCI-H322M | 0.772
3 | LCLC-97TM1 | 0.271
4 | NCI-H2009 | 1.11
5 | A-427 | 1.09
6 | NCI-H441 | 0.715
7 | NCI-H1734 | 0.759
8 | NCI-H460 | 0.425
9 | NCI-H2347 | 1.03
10 | SK-LU-1 | 1.08
11 | NCI-H1395 | 1.1
12 | 201T | 1.05
13 | NCI-H1915 | 1.08
14 | HCC-827 | 1.08
15 | LXF-289 | 1.08
16 | NCI-H23 | 0.774

Same assay, conditions: first compound 0.2 µM

Row | Cell Line | relative viability
17 | HCC-78 | 0.376
18 | NCI-H322M | 0.824
19 | NCI-H2009 | 1.19
20 | A-427 | 1.14
21 | NCI-H441 | 0.869
22 | NCI-H1734 | 0.751
23 | NCI-H460 | 0.486
24 | NCI-H2347 | 1.18
25 | SK-LU-1 | 1.3
26 | NCI-H1395 | 1.3
27 | 201T | 1.04
28 | NCI-H1915 | 1.13
29 | HCC-827 | 0.957
30 | LXF-289 | 1.09
31 | NCI-H23 | 0.865

Same assay, conditions: first compound 0.6325 µM

Row | Cell Line | relative viability
32 | HCC-78 | 0.306
33 | NCI-H322M | 0.657
34 | LCLC-97TM1 | 0.239
35 | NCI-H2009 | 1.1
36 | A-427 | 1.14
37 | NCI-H441 | 1.01
38 | NCI-H1734 | 0.671
39 | NCI-H460 | 0.491
40 | NCI-H2347 | 1.15
41 | SK-LU-1 | 0.891
42 | NCI-H1395 | 1.13
43 | 201T | 1
44 | NCI-H1915 | 1.02
45 | HCC-827 | 0.944
46 | LXF-289 | 1.06
47 | NCI-H23 | 0.806

Same assay, conditions: first compound 2 µM

Row | Cell Line | relative viability
48 | HCC-78 | 0.397
49 | NCI-H322M | 0.831
50 | LCLC-97TM1 | 0.206
51 | NCI-H2009 | 1.16
52 | A-427 | 1.05
53 | NCI-H441 | 0.654
54 | NCI-H1734 | 0.775
55 | NCI-H460 | 0.449
56 | NCI-H2347 | 1.12
57 | SK-LU-1 | 0.977
58 | NCI-H1395 | 1.05
59 | 201T | 1.05
60 | NCI-H1915 | 1.04
61 | HCC-827 | 1.02
62 | LXF-289 | 1.01
63 | NCI-H23 | 0.725

Compound: NCC(=O)Nc1ccc(-n2nc(C(F)(F)F)cc2-c2ccc3c(ccc4ccccc43)c2)cc1 + Nc1nc2[nH]cc(CCc3ccc(C(=O)N[C@@H](CCC(=O)O)C(=O)O)cc3)c2c(=O)[nH]1 [Pemetrexed] (partner 0.2 µM)
Test: as above
Details: first compound 0.02 µM
Method in brief: as §1

Row | Cell Line | relative viability
64 | HCC-78 | 0.977
65 | NCI-H322M | 0.562
66 | LCLC-97TM1 | 0.181
67 | NCI-H2009 | 1.03
68 | A-427 | 1
69 | NCI-H441 | 0.253
70 | NCI-H1734 | 0.406
71 | NCI-H460 | 0.0659
72 | NCI-H2347 | 0.403
73 | SK-LU-1 | 0.992
74 | NCI-H1395 | 0.876
75 | 201T | 0.321
76 | NCI-H1915 | 0.452
77 | HCC-827 | 0.217
78 | LXF-289 | 0.913
79 | NCI-H23 | 0.656

Same assay, conditions: first compound 0.06325 µM

Row | Cell Line | relative viability
80 | HCC-78 | 0.894
81 | NCI-H322M | 0.617
82 | LCLC-97TM1 | 0.176
83 | NCI-H2009 | 1.01
84 | A-427 | 0.975
85 | NCI-H441 | 0.279
86 | NCI-H1734 | 0.457
87 | NCI-H460 | 0.064
88 | NCI-H2347 | 0.421
89 | SK-LU-1 | 0.956
90 | NCI-H1395 | 0.896
91 | 201T | 0.32
92 | NCI-H1915 | 0.503
93 | HCC-827 | 0.211
94 | LXF-289 | 0.956
95 | NCI-H23 | 0.707

Same assay, conditions: first compound 0.2 µM

Row | Cell Line | relative viability
96 | HCC-78 | 0.884
97 | NCI-H322M | 0.535
98 | LCLC-97TM1 | 0.183
99 | NCI-H2009 | 1.08
100 | A-427 | 1.02
101 | NCI-H441 | 0.273
102 | NCI-H1734 | 0.442
103 | NCI-H460 | 0.0588
104 | NCI-H2347 | 0.409
105 | SK-LU-1 | 1.11
106 | NCI-H1395 | 0.969
107 | 201T | 0.326
108 | NCI-H1915 | 0.477
109 | HCC-827 | 0.277
110 | LXF-289 | 0.914
111 | NCI-H23 | 0.56

Same assay, conditions: first compound 0.6325 µM

Row | Cell Line | relative viability
112 | HCC-78 | 0.903
113 | NCI-H322M | 0.643
114 | LCLC-97TM1 | 0.178
115 | NCI-H2009 | 1.05
116 | A-427 | 0.974
117 | NCI-H441 | 0.259
118 | NCI-H1734 | 0.442
119 | NCI-H460 | 0.0727
120 | NCI-H2347 | 0.432
121 | SK-LU-1 | 0.902
122 | NCI-H1395 | 0.8
123 | 201T | 0.301
124 | NCI-H1915 | 0.575
125 | HCC-827 | 0.251
126 | LXF-289 | 0.926
127 | NCI-H23 | 0.63

Same assay, conditions: first compound 2 µM

Row | Cell Line | relative viability
128 | HCC-78 | 0.89
129 | NCI-H322M | 0.668
130 | LCLC-97TM1 | 0.135
131 | NCI-H2009 | 1.04
132 | A-427 | 0.957
133 | NCI-H441 | 0.243
134 | NCI-H1734 | 0.384
135 | NCI-H460 | 0.0577
136 | NCI-H2347 | 0.496
137 | SK-LU-1 | 0.989
138 | NCI-H1395 | 0.894
139 | 201T | 0.311
140 | NCI-H1915 | 0.467
141 | HCC-827 | 0.254
142 | LXF-289 | 0.767
143 | NCI-H23 | 0.665
